In patent US20200022964A1, “COMPOSITIONS AND METHODS FOR TREATMENT OF INFLAMMATORY AUTOIMMUNE DISEASES” (New York University, priority 2018, published 2020):

How the values were obtained:
[1] = system: TNF-α/NF-κB signaling pathway; assay: NF-κB beta-lactamase reporter gene assay in NF-κB-bla THP-1 cell line; assay type: cell-based; conditions: THP-1 cells, drug overnight; for TNF-α-activated NF-κB reporter gene: then TNF-α 6 hours
Protocol: In vitro and in vivo screen of FDA-approved drug library. NF-κB-bla THP-1 cell line in which NF-κB beta-lactamase reporter gene was stably integrated, RAW 264.7 macrophages in which NF-κB luciferase reporter gene was transiently transfected, and TNF-tg:NF-κB-Luc double mutant reporter mice were employed to screen the drug library. Screening FDA approved drugs in vitro. NF-κB-bla THP-1 cell line ([…], Invitrogen) was cultured in 96-well plates and FDA approved drugs (10 μM, L1300, Selleckchem) were added and cultured overnight. Next day, […] Loading Kit with CCF2-AM ([…], Invitrogen) was used to detect the β-lactamase activity via SpectraMax i3x system (5025027A Molecular Devices) with excitation wavelength at 409 nm and emission wavelengths at 520 nm or 470 nm. This process was performed in triplicate. Subsequently, the drugs from first screening that could inhibit TNF-α induced NF-κB activity underwent further screening by NF-κB luciferase assay. After transfection with NF-κB luciferase reporter gene and Renilla plasmids for 8 hours, cells were treated with drugs (10 μM) overnight, followed by TNF-α (10 ng/ml) stimulation for 6 hours, then bioluminescence was measured by Dual-Luciferase® Reporter Assay kit (E1910, Promega). The data were analyzed by Graphpad Prism software (GraphPad Software, San Diego, Calif.).

TNF-α-induced genes = assay: RNA-seq of TNF-α-treated BMDMs; assay type: cell-based, mice; conditions: TNF-α 10 ng/mL; FFD 10 μM, TFD 1 μM; 24 hours
Protocol: (§1) Primary bone marrow derived macrophages (BMDMs) extraction. BMDMs were isolated from C57BL/6 and TNF-tg mice. After mice were sacrificed by cervical dislocation, the tibia and femur were isolated and both ends of the bones were cut to open the medullary cavity. Bone marrow cells were collected by centrifuge at 13000 g for 90 seconds and seeded in 6-well plates. Prior to their use in experiments, M-CSF (10 ng/ml, 576406, Biolegend) was added for 6 days to the BMDM culture medium.
RNAseq and Transcription factors enrichment analysis. […] Total RNA was extracted by RNeasy Mini Kit (74106, Qiagen), and gene expression profiling analyzed by RNA-seq was performed by the NYU Genome Technology Center for RNA sequencing (Illumina HiSeq4000 Sequencing, HiSeq 4000 Single Read 50 Cycle Lane).

TNF-α = assay: ELISA of TNF-α induced release of IL-1β and IL-6 in BMDMs; assay type: cell-based, mice; conditions: TNF-α 10 ng/mL; for TNF-α induced releases of IL-1β and IL-6: FFD 1, 10 μM, TFD 0.1, 1 μM, 48 hours
Protocol: as §1

[2] = system: osteoclastogenesis in BMDMs; assay: Osteoclastogenesis in BMDMs (TRAP staining); assay type: cell-based, mice; conditions: RANKL 100 ng/mL and TNF-α 10 ng/mL; FFD 10 μM, TFD 1 μM; 4 days
Protocol: Osteoclastogenesis. […] The cells were fixed with formalin and stained for tartrate-resistant acid phosphatase (TRAP) with a TRAP solution containing 100 mM sodium acetate buffer (pH 5.0), 50 mM sodium tartrate, 0.1 mg/ml sodium naphtol AS-MX phosphate, 0.6 mg/ml Fast Violet LB, and 0.1% Triton X-100. TRAP-positive cells appeared dark red and TRAP-positive multinucleated cells containing more than three nuclei (TRAP-MNCs) were visualized using light microscopy.

[3] = system: TNF-α induced AA production; assay: Arachidonic acid detection in BMDMs; assay type: cell-based, mice; conditions: TNF-α 10 ng/mL, 48 hours
From the text: Arachidonic acid detection. […] The result was detected at 450nm by automatic plate reader (SpectraMax i3x system, 5025027A, Molecular Devices). ATK was implemented as a positive control.

cPLA2 = biological target: T1, cPLA2 (Mus musculus, UniProt P47713); assay: CETSA assay in RAW264.7 cells; assay type: binding; set-up: endogenous in cells; host or cells: RAW264.7; conditions: for EC50: CETSA at 49° C., 0.001 μM to 100 μM, read-out: EC50 of prevention of cPLA2 denaturation (isothermal dose response)
T1 sequence (P47713 1-748): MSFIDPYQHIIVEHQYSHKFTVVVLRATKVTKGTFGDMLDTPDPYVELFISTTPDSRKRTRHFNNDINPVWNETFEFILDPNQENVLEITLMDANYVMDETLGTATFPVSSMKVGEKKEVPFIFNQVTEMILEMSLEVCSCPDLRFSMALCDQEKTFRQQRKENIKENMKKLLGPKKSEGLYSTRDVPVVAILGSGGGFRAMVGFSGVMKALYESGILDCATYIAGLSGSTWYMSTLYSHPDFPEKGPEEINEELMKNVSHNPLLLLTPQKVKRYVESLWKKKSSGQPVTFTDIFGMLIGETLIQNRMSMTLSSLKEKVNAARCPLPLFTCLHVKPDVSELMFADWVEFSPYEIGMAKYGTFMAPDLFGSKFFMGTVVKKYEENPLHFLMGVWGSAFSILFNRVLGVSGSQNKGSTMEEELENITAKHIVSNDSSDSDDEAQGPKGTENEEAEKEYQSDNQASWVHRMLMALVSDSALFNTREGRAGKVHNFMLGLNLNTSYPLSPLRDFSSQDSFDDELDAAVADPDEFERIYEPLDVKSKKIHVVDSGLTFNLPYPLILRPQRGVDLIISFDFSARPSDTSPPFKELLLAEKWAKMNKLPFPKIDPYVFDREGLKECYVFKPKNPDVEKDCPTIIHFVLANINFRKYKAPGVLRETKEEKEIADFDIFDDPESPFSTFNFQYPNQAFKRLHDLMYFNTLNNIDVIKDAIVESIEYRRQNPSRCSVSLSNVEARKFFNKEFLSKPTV
Protocol: CETSA assay. RAW264.7 cells were treated with FFD (10 μM)/TFD (1 μM) for 1 hour in a 37° C. incubator with 5% CO2. Cells were harvested and divided equally into different tubes, after which the cells were heated to different temperatures for 3 minutes. After lysis via 3 repeated freeze-thaw cycles, samples underwent centrifugation at 20000 g and supernatants were collected for analysis. For the isothermal dose response, a series of ten-fold change concentrations (ranged from 0.001 μM to 100 μM) of FFD/TFD were used to treat cells and no variation in temperature was introduced. The remaining steps are the same as previously reported^5.

EC50 (cPLA2) | Tm of cPLA2 (CETSA melt curve) (cPLA2; RAW264.7 cells, FFD 10 μM, TFD 1 μM, 1 hour, control DMSO 46.09) | Compound | AA activation of the NF-κB reporter gene ([1]; then AA 6 hours) | TNF-α-activated NF-κB reporter gene [1] | TNF-α-activated NF-κB reporter gene ([1]; listed as FFD) | expression of TNF-α-induced genes (RNA-seq) (TNF-α-induced genes) | effect of AA supplementation on inhibition of TNF-α induced release of IL-1β and IL6 (TNF-α; AA 10 μM, FFD 10 μM) | TNF-α induced releases of IL-1β and IL-6 (TNF-α) | TNF-α-mediated osteoclastogenesis [2] | TNF-α induced AA production [3]
102 nM |  | CC(C)(C(=O)O)c1ccc(C(O)CCCN2CCC(C(O)(c3ccccc3)c3ccccc3)CC2)cc1 (stereo not shown) [fexofenadine] | did not constrain | inhibited | inhibit | clearly downregulated | eliminated the inhibitory influence | abolished | markedly inhibited | inhibited
1.45 nM | 49.08 °C | CC(C)(C)c1ccc(C(O)CCCN2CCC(C(O)(c3ccccc3)c3ccccc3)CC2)cc1 (stereo not shown) [terfenadine] |  | inhibit |  | clearly downregulated |  | abolished | markedly inhibited | inhibited
